How the values were obtained:
[1] = test system: panel of experts in the sensory evaluation of foods and beverages; assay: Sensory evaluation of sweetness linger by expert panel; format: in vivo; settings: for Sweetness linger rating / Sweetness linger: scale 0=no to 5=high sweetness linger; for Sweetness Linger rating as defined by the protocol: reference points of the scale, REBA control sample 500 ppm
Description: Sensory evaluation of the samples prepared in Example Set G was carried out under the following protocol, similar to that described hereinabove. In this test protocol, none of the samples were swallowed. All samples were expectorated and the mouth was rinsed with water after the tasting. Immediately upon sensing maximal sweetness, the sample was expectorated, the mouth was rinsed with water and the rate of sweetness decay (“Sweetness Linger”) was measured, where attention was focused on the sweetness 3-4 min after the water rinse. After sample tasting was complete, a salty oyster cracker was chewed followed by a water rinse, and at least 5 minutes followed before tasting the next sample. The sweetness linger was rated by a panel of experts in the sensory evaluation of foods and beverages using the following scale: 0=no sweetness linger, 1=very slight sweetness linger, 2=slight sweetness linger, 3=moderate sweetness linger, 4=moderately high sweetness linger, 5=high sweetness linger.
The “Sweetness Linger” rating for sucrose observed by this protocol is defined as 0. The Sweetness Linger of a 500 ppm of REBA control sample is defined as 5. Experimental samples were tasted by the same protocol, always allowing sufficient time between samples to ensure re-equilibration of the sensory system. Re-tasting of control samples during the course of the experiment was allowed and encouraged.
The comparison taste test was performed between two controls and addition of sweet taste improving additive on the onset and/or sweetness linger.
Sweet taste improving compositions were combined with a REBA solution to determine their effect on sweetness linger. Screening of the initial sample, or further dilutions, allowed identification of concentrations which were just above-threshold, herein defined as “near-threshold concentrations.” The near-threshold additive concentrations, a 6- to 100-fold higher higher additive concentration (depending on the off-taste intensity), and a mid-level additive concentration (halfway between the near-threshold and higher additive concentration) were evaluated to determine the effect on sweetness linger of a REBA solution.
Formulations of a 500 ppm REBA in a phosphoric acid solution (75%) at a pH of 2.5 with phosphoric acid or a pH of 3.1 with citric acid and potassium citrate were prepared prior to the addition of the additives at the three levels of concentration.
\Sensory evaluation using the protocol described in Example Set C then was used to evaluate the sweetness linger of the REBA solutions.

[2] = Rate of dissolution of rebaudioside A forms in H2O at 25° C.; format: physicochemical; settings: in words

## OC[C@H]1O[C@@](CO)(O[C@H]2O[C@H](CO)[C@@H](O)[C@H](O)[C@H]2O)[C@@H](O)[C@@H]1O [sucrose]
[1]; Set G control: 8 g of sugar in 100 ml of citrate buffer
  Sweetness linger rating: 0
[1]; Set H control: 10 g of sugar in 100 ml carbon treated water, phosphoric acid to pH 2.4-2.5
  Sweetness linger rating: 0
[1]
  Sweetness Linger rating as defined by the protocol: 0

## rebaudioside A
[1]; Example Set G: 400 ppm REBA in citric acid/potassium citrate composition equivalent to diet lemon-lime beverage, with or without additive
  Sweetness linger: 5
[1]; Example Set H: REBA in carbon-treated water, phosphoric acid (75%) to pH 2.4-2.5, with or without additive
  Sweetness linger: 5
[1]
  Sweetness Linger rating as defined by the protocol: 5

## rebaudioside A [Form 1]
[2]
  Rate of dissolution in H2O at 25° C.: Very low

## rebaudioside A [Form 2]
[2]
  Rate of dissolution in H2O at 25° C.: Intermediate

## rebaudioside A [Form 3]
[2]
  Rate of dissolution in H2O at 25° C.: High

## rebaudioside A [Form 4]
[2]
  Rate of dissolution in H2O at 25° C.: High

— patent publication US20070116823A1, “HIGH-POTENCY SWEETENER FOR HYDRATION AND SWEETENED HYDRATION COMPOSITION” (THE COCA-COLA COMPANY, priority 2005, published 2007)
